Assay results taken from patent publication US7244712B2, “Aminoglycoside antibiotics and methods of using same” (priority 2004, dated 2007).
Converted amounts (≈) assume the structure as drawn. “Also recorded” adds a separate entry of the source.

Assays:
80S ribosome = assay: Fluorescence anisotropy binding to 80S ribosomes; parameters: species or system yeast (S. cerevisiae); settings: competition with CRP, yeast ribosomes; read-out: Dissociation constant (KD) with 80S ribosome
Method: After establishing the lack of stereospecificity in the binding of aminoglycosides to the A-site RNA constructs (FIG. 9A-C) where the binding affinity, KD, is about 0.1 μM to about 100 μM, the stereospecificity of aminoglycoside binding to intact ribosomes was determined. Both yeast and E. coli ribosomes were prepared and aminoglycoside binding was measured using fluorescence anisotropy methods. For example, fluorescence anisotropy methods recited in Wang, Y., and Rando, R. R. Chem. Biol. (1995) 2, 281-290; and Wang, Y., Hamasaki, K., and Rando, R. R. Biochemistry (1997) 36,768-779. CRP was used as the binding probe. […] Binding data reported herein for aminoglycoside compounds with eukaryotic yeast ribosomes are similar to binding data for said aminoglycoside compounds with ribosoimes in bacteria and with eukaryotic A-site rRNA constructs.
5-Carboxytetramethylrhodamine-labeled paromomycin (CRP) and tobramycin (CRT) concentrations were determined spectroscopically at 550 nm using a molar extinction coefficient of 6.00×10 4 M −1 cm −1. Fluorescence anisotropy measurements were performed on a Perkin-Elmer LS-50B luminescence spectrometer equipped with a thermostat accurate to ±0.1° C. as indicated previously (Wang, Y., Hamasaki, K., & Rando, R. R. (1997) Biochemistry 36, 768-779). The tracer solution was excited at 550 nm and monitored at 580 nm. The integration time was 5 s. For every point, 6 measurements were taken, and their average values were used for calculation. Measurements were carried out in a buffer solution containing 150 mM NaCl, 5 mM KCl, 1 mM CaCl2, 1 mM MgCl2, and 20 mM HEPES (pH 7.5). Prior to measurements, RNA constructs were renatured by incubating in binding buffer {150 mM NaCl, 5 mM KCl, 1 mM CaCl2, 1 mM MgCl2, and 20 mM HEPES (pH 7.5)} for 3 minutes at 90° C. followed by slow cooling to 25° C.
Equation 1 was used for the determination of the dissociation constant (Kd) for the interactions between RNA or ribosome and CRP. A=A0+DA{(RNA)0+(CRP)0+Kd−({(RNA)0+(CRP)0+Kd}^2−4(RNA)0(CRP)0)½}/2 where A and A0 are the fluorescence anisotropy of CRP in the presence and absence of RNA, respectively, and DA is the difference between the fluorescence anisotropy of CRP in the presence of an extrapolated infinite concentration of RNA minus the fluorescence anisotropy in the absence of RNA. (RNA)0 and (CRP)0 are the initial concentrations of RNA and CRP, respectively.
Equation 2 is used for the calculation of the KD values in the competition binding assay. (aminoglycoside)0={KD(A−−A)/Kd(A−A0)+1}{(RNA)0−Kd(A−A0)/(A−−A)−(CRP)0(A−A0)/(A−−A)} where KD is the dissociation constant between the RNA and the aminoglycosides; (aminoglycoside)0 is the initial concentration of the aminoglycosides; AL is anisotropy of completely bound tracer. Both Kd and KD were determined by non-linear curve fitting using the equations described above, and are presented as mean values of three independent measurements.
The purification of yeast 80S ribosomes from S. cerevisiae strain YSB 758 was carried out according to the published procedure (Verschoor, A., Warner, J. R., Srivastava, S., Grassucci, R. A., & Frank, J. (1997) Nucl. Acid Res. 26, 655-661). S. cerevisiea YSB 758 were grown for 12 hrs at 30° C. in 2L of YPD medium, containing: 20 g bacto peptone, 20 g glucose, 10 g yeast extract and 0.15 g tryptophan per 1 L, pH 7.0. The cells were lysed by 5-10 cycles of 1 min vigorous shaking with glass beads with a vortex, followed by cooling on ice. Clarified cell extract (about 9 mL total, used in 6 portions in 1.5 mL aliqouts) was carefully loaded on top of 2 mL of a cushion, composed of 10% sucrose and 5% ammonium sulfate dissolved in buffer YR1 (20 mM HEPES pH=7.4, 16 mM magnesium chloride, 100 mM potassium chloride, 5 mM DTT, and 0.5 mM EDTA). The ribosomes were collected by centrifugation in Beckman TL100.3 rotor at 75000 rpm for 3 h. The supernatants were carefully discarded and ribosomes were collected in buffer YR1. […]

[1] = system: E. coli (ATCC 25922) transformed with pMM plasmid bearing APH(3')IIa; assay: MIC, kanamycin/neomycin resistant E. coli; type: cell-based; settings: growth inhibition greater than 90%
Method: (§1) E. coli (ATCC 25922) and P. aeruginosa (ATCC 27853) (BD Bioscience) were inoculated in 3 mL of the medium 2 (U.S. Pharmacopia), containing 6 g peptone, 3 g yeast extract and 1.5 g beef extract per 1 L, pH 6.6, and were grown in a shaker for 6 h at 37° C. until an OD 560=0.6-0.8 was reached.
Minimal inhibitory concentrations (MIC) were measured according to the published method (Greenberg, W. A., Priestley, E. S., Sears, P. S., Alper, P. B., Rosenbohm, C., Hendrix, M., Hung, S.-C., & Wong, C.-H. (1999) J. Am. Chem. Soc. 121, 6527-6541). E. coli (ATCC 25922) (both wild type and pMM-transformed) and P. aeruginosa (ATCC 27853) were grown in medium 2 to an optical density OD 600 of 0.6-0.8. The inoculi were diluted to OD 600 ˜0.1 in medium 2 and 1 mL of the culture was placed in 13 mL test tubes. The desired concentrations of antibiotic were added from stock solutions. […] The absorbance at 600 nm of each sample was read and MIC was taken as the lowest antibiotic concentration inhibiting bacterial growth by greater than 90%.

E. coli (ATCC 25922) = assay: Antibiotic activity disk assay, wild type E. coli; type: cell-based; settings: FIG. 7A
Method: as §1
(§2) For the antibiotic disk assay, […] of each bacterial inoculum was mixed with 10 mL of melted agar (1.5% medium 2 agar, BD Bioscience) at 50-55° C. and poured onto 100 mm Petri dishes. Sterile Whatmann 3 MM 5 mm paper disks were soaked with antibiotic solutions and allowed to dry. The disks were positioned evenly on the surface of bacterial-inoculated solid agar and the plates were incubated at 37° C. for 1-2 days. MIC and bactericide index measurements.

[2] = system: E. coli (ATCC 25922) transformed with the plasmid pMM, bearing the APH(3')IIa gene; assay: Antibiotic activity disk assay, kanamycin/neomycin resistant E. coli; type: cell-based; settings: FIG. 7B
Method: as §1, §2

E. faecalis = assay: Antibacterial activity against E. faecalis; type: cell-based

In the case of `NCC1OC(OC2C(N)CC(N)C(O)C2O)C(N)C(O)C1O` [L-Neamine], the Kd (80S ribosome) is reported as 6.06 ± 0.63 µM, the “Minimal inhibitory concentration (MIC), E. coli kan/neo resistant” value [1] is reported as 2100 µM (≈ 677 µg/mL) and the “Antibiotic activity in disk assay, WT E. coli” value (E. coli (ATCC 25922)) is reported as “somewhat lower activity”. For the same molecule, the “Antibiotic activity in disk assay, kanamycin/neomycin resistant E. coli” value [2] was “maintained antibiotic activity; also recorded: maintaines substantially the same level of activity” and the “Antibacterial activity against E. faecalis” value (E. faecalis) was “little to no antibacterial activity”.
